The molecules below were run against T1, Squalene synthase (Rattus norvegicus, UniProt Q02769) (assay: In vitro inhibition of rat squalene synthase).
T1 sequence (Q02769 whole entry): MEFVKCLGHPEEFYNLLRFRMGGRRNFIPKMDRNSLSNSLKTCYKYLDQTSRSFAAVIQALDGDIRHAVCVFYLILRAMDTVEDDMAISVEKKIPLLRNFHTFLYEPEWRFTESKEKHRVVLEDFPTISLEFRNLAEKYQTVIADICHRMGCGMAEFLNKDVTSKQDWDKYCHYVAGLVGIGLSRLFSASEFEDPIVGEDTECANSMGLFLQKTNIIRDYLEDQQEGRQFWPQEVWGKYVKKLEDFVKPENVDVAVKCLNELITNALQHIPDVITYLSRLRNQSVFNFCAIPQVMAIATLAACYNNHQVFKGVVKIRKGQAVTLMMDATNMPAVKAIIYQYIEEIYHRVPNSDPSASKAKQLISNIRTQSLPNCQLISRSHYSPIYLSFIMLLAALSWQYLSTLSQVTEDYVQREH

IC50 [nM] | SMILES
395 | C=C(CC[C@]12O[C@H](CO)[C@@](O)(C(=O)O)[C@](C(=O)O)(O1)[C@H](O)[C@H]2O)[C@@H](OC(C)=O)[C@H](C)Cc1ccccc1
119 | C=C(CC[C@]12O[C@H](CO)[C@@](O)(C(=O)O)[C@](C(=O)O)(O1)[C@H](OC(=O)CCC(C)C)[C@H]2O)[C@@H](OC(C)=O)[C@H](C)Cc1ccccc1
22 | C=C(CC[C@]12O[C@H](CO)[C@@](O)(C(=O)O)[C@](C(=O)O)(O1)[C@H](OC(=O)CC[C@@H](C)C[C@@H](C)CC)[C@H]2O)[C@@H](O)[C@H](C)Cc1ccccc1
44 | C=C(CC[C@]12O[C@H](CO)[C@@](O)(C(=O)O)[C@](C(=O)O)(O1)[C@H](OC(=O)CC[C@@H](C)C[C@@H](C)CC)[C@H]2O)[C@@H](OC(C)=O)[C@H](C)Cc1ccccc1
25000 | C=C(CC[C@]12OC[C@@](O)(C(=O)O)[C@](C(=O)O)(O1)[C@H](O)[C@H]2O)[C@@H](OC(C)=O)[C@H](C)Cc1ccccc1
23 | C=C(CC[C@]12OC[C@@](O)(C(=O)O)[C@](C(=O)O)(O1)[C@H](OC(=O)/C=C/[C@@H](C)C[C@@H](C)CC)[C@H]2O)[C@@H](OC(C)=O)[C@H](C)Cc1ccccc1
740 | CC[C@H](C)C[C@H](C)CCC(=O)O[C@@H]1[C@@H](O)[C@@]2(CCC(=O)[C@@H](O)[C@H](C)Cc3ccccc3)O[C@H](CO)[C@@](O)(C(=O)O)[C@]1(C(=O)O)O2
15 | C=C(CC[C@]12O[C@H](CO)[C@@](O)(C(=O)O)[C@](C(=O)O)(O1)[C@H](OC(=O)/C=C/[C@@H](C)C[C@@H](C)CC)[C@H]2O)[C@@H](OC(C)=O)[C@H](C)Cc1ccccc1
21 | C=C(CC[C@]12O[C@H](CO)[C@@](O)(C(=O)O)[C@](C(=O)O)(O1)[C@H](OC(=O)/C=C/[C@@H](C)C[C@@H](C)CC)[C@H]2O)[C@@H](O)[C@H](C)Cc1ccccc1
245 | C=C(CC[C@]12O[C@H](CO)[C@@](O)(C(=O)O)[C@](C(=O)O)(O1)[C@H](OC(=O)CCCCCC)[C@H]2O)[C@@H](OC(C)=O)[C@H](C)Cc1ccccc1
140 | C=C(CC[C@]12O[C@H](CO)[C@@](O)(C(=O)O)[C@](C(=O)O)(O1)[C@H](OC(=O)CCCCCCCC)[C@H]2O)[C@@H](OC(C)=O)[C@H](C)Cc1ccccc1
79 | C=C(CC[C@]12O[C@H](CO)[C@@](O)(C(=O)OC)[C@](C(=O)O)(O1)[C@H](OC(=O)/C=C/[C@@H](C)C[C@@H](C)CC)[C@H]2O)[C@@H](OC(C)=O)[C@H](C)Cc1ccccc1
800 | C=C(CC[C@]12O[C@H](CO)[C@@](O)(C(=O)O)[C@](C(=O)O)(O1)[C@H](OC(=O)CCC)[C@H]2O)[C@@H](OC(C)=O)[C@H](C)Cc1ccccc1

Reference: ChEMBL document CHEMBL1127946, “The squalestatins: Potent inhibitors of squalene synthase, 3-hydroxymethyl derivatives” (Bioorg Med Chem Lett, 1994)
